Data set [1] can be described thus: Tm of 21-nt RNAs synthesized from various chemistries. Type of data set: physicochemical. The conditions noted are these: base sequence r(GCUUGAAGUCUUUAAUUAA)-d(TT).
The next data set deals with luciferase mRNA. As to the kind of experiment: RNAi assay that targets luciferase mRNA (luciferase gene knockdown by siRNA duplexes). It is filed as cell-based. The conditions noted are these: antisense strand annealed to common sense strand synthesized via 2′-TBDMS chemistry; light units relative to Renilla control; compared with TBDMS, TOM and ACE derived duplexes. The source says:
The fully deprotected antisense strands were synthesized by TBDMS, TOM, ACE and ALE chemistries, whereas the complementary sense strand of the siRNA duplex was synthesized by TBDMS chemistry.
As a final check, we evaluated the activity of all RNAs synthesized in an RNAi assay that targets luciferase mRNA (Dowler, T. et al. Nucleic Acids Res 2006, 34, 1669-75). Each of the antisense strands prepared by the various chemistries were allowed to anneal to a common sense strand synthesized via 2′-TBDMS chemistry.

In the oligonucleotide strings, read from the 5' end, every base follows the letter of its sugar. An asterisk marks phosphorothioate; unmarked linkages are phosphodiester. Other units and linkages are bracketed, terminal groups are in braces. A string of capitals states the bases alone. d = 2'-deoxy (DNA); r = 2'-OH (RNA)

Regarding “r(GCUUGAAGUCUUUAAUUAA)-d(TT) [ACE] (antisense rGrCrUrUrGrArArGrUrCrUrUrUrArArUrUrArAdTdT) [21-nt antisense siRNA strand from 2′-O-ACE chemistry, crude RNA purchased from Dharmacon]”, in data set [1], the Tm came out at 59.5 °C. As for “r(GCUUGAAGUCUUUAAUUAA)-d(TT) [ALE] (antisense rGrCrUrUrGrArArGrUrCrUrUrUrArArUrUrArAdTdT) [21-nt antisense siRNA strand synthesized from 2′-O-ALE chemistry]”, the “gene silencing activity (luciferase gene knockdown)” value in the data set with luciferase mRNA is “same gene silencing activity”. Moreover, the Tm in data set [1] is 59.4 °C.

Regarding “r(GCUUGAAGUCUUUAAUUAA)-d(TT) [TBDMS] (RNA, 3' dTdT, backbone not given here) [21-nt antisense siRNA strand synthesized from 2′-O-TBDMS chemistry]”, in data set [1], the Tm amounted to 59.8 °C. As to “r(GCUUGAAGUCUUUAAUUAA)-d(TT) [TOM] (antisense rGrCrUrUrGrArArGrUrCrUrUrUrArArUrUrArAdTdT) [21-nt antisense siRNA strand synthesized from 2′-O-TOM chemistry]”, the Tm in data set [1] was determined as 60.1 °C.
